In patent publication US9932288B2, “Chemical compound for inhibition of SHP2 function and for use as an anti-cancer agent” (West Virginia University, priority 2015, dated 2018):
pIC50: −log10 of the molar value. Where “and” joins values, the source holds several entries; their conditions need not be identical. Equal entries are not always repeated.

Legend:
[1] = molecular target: T1, PTP domain of SHP1 fused to GST (Homo sapiens, UniProt P29350); test: phosphatase assay with DiFMUP substrate, GST-PTP of SHP1; type: biochemical; settings: DiFMUP 20 μM, 30° C., pH7.0
T1 construct: The PTP domains of SHP2 and SHP1 fused to glutathione-S-transferase (GST-PTPs) were expressed in E. coli; GST (N); made in house; host or cells: E. coli
T1 sequence (P29350 244-515 limits assumed): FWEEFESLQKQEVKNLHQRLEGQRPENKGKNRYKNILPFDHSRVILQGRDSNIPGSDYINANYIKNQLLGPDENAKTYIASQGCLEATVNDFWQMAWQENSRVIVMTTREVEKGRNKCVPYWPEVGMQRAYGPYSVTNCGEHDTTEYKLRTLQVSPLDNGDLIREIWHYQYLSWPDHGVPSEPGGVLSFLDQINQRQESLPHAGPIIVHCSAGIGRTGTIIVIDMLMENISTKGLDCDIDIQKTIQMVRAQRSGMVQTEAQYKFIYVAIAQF
Description: (§1) The effect of CNBD on the SHP2 phosphatase activity was tested using the artificial substrate DiFMUP (6,8-difluoro-4-methylumbelliferyl) at a concentration of 20 μM, which is commonly used in phosphatase assays. CNBDA concentrations of 1.94 mM, 194 μM, 97 μM, 48.5 μM, 24.25 μM, 19.4 μM, 12.9 μM, and 1.94 μM in water were used in the analysis. The PTP domains of SHP2 and SHP1 fused to glutathione-S-transferase (GST-PTPs) were expressed in E. coli using a standard protein expression protocol and purified on glutathione sepharose beads as recommended by the manufacturer (Pharmacia), and quantified by measuring absorbance at 280 nm and comparison with BSA standards. Reactions were performed at 30° C. in 100 μl volume of PTPase buffer containing 25 mM Tris-HCl pH7.0, 50 mM NaCl, 2 mM EDTA and 10 mM dithiothreitol (DTT). Change in absorbance (production of DiFMU, dephosphorylated form of DiFMUP) was followed in a plate-reading visible spectrophotometer at 450 nm.

[2] = tested on: non-tumorigenic MCF-10A breast epithelial cells; test: 2D culture cell growth, MCF-10A normal control; type: cell-based
Description: (§2) Therefore, the anti-cancer activity of CNBDA was tested in breast cancer cells under 2-dimensional (culture plates), soft agar, and suspension cultures. Because SHP2 is an essential downstream mediator of receptor tyrosine kinase (RTK) signaling, including HER2 and HER1 [24, 25], breast cancer cells that harbor dysregulated RTK and SHP2 signaling were chosen for testing the effect of CNDBA. Accordingly, the BT474 cell line that overexpress the human epidermal growth factor receptor 2 (HER2) and the MDA-MB468 cell line that overexpress HER1 (also known as EGFR) were used. The non-transformed MCF-10A breast epithelial cells were used as a “normal” control in these studies. The BT474 cells were grown in RPMI 1640, while the MDA-MB468 cells were grown in Dulbecco's Modified Eagle's Medium (DMEM), both supplemented with 10% fetal calf serum. On the other hand, the MCF-10A cells were grown in DMEM supplemented with […] recombinant human insulin, 20 ng/ml EGF (PeproTech), […] hydrocortisone, 100 ng/ml cholera toxin (Sigma) and 5% horse serum, as described previously. All cells were grown in a 37° C. incubator supplied with 5% CO2. […] In the HER2-positive BT474 breast cancer cell line, CNBDA suppressed cell growth at the lowest concentration used (100 ng/ml) as determined by absence of gradual increase in cell density (FIG. 6A). […]

[3] = tested on: EGFR-amplified MDA-MB468 basal-like breast cancer cell line; test: 2D culture cell growth and cell death, MDA-MB468; type: cell-based; settings: MDA-MB468, 2D culture
Description: as §2

[4] = tested on: BT474 cells; test: mammosphere formation in suspension culture, BT474; type: cell-based
Description: (§3) Finally, the effect of CNBDA on the above mentioned breast cancer cells (BT474 and MDA-MB468) was evaluated by the mammosphere formation assay in which cells with stem-like properties (including cancer stem cells) only can survive and form these structures. Briefly, cells were cultured in ultra-low adherence plates (1×10^6 cells per 6 cm plate) in a medium containing serum-free DMEM, 1 μg/ml hydrocortisone, 10 μg/ml insulin, 10 ng/ml EGF, 10 ng/ml FGF, 5 ng/ml heparin, and B27 (Invitrogen). After 10 days of culture, primary mammosphere formation was determined by observation under a microscope at which time pictures of mammospheres was taken at 4×objective. Next, the primary mammospheres were collected by centrifugation at 1000 rpm, dissociated to single cells by trypsination and pipetting, and re-cultured under same conditions to observe effect of SHP2 silencing on secondary mammosphere-forming capacity. Pictures of secondary cultures also were taken after 10 days at 4×objective. […] Similar to the anchorage-independent growth studies, the concentration of CNBDA that led to exhaustion of mammosphere formation was 4-5 fold lower than the amount needed for cell killing in the 2D cultures.
(§4) Note than the number and size of mammospheres decreases as the concentration of CNBDA increases.

[5] = tested on: HER2-positive BT474 breast cancer cell line; test: 2D culture cell growth and cell death, BT474; type: cell-based; settings: BT474, 2D culture
Description: Therefore, the anti-cancer activity of CNBDA was tested in breast cancer cells under 2-dimensional (culture plates), soft agar, and suspension cultures. Because SHP2 is an essential downstream mediator of receptor tyrosine kinase (RTK) signaling, including HER2 and HER1 [24, 25], breast cancer cells that harbor dysregulated RTK and SHP2 signaling were chosen for testing the effect of CNDBA. Accordingly, the BT474 cell line that overexpress the human epidermal growth factor receptor 2 (HER2) and the MDA-MB468 cell line that overexpress HER1 (also known as EGFR) were used. The non-transformed MCF-10A breast epithelial cells were used as a “normal” control in these studies. The BT474 cells were grown in RPMI 1640, while the MDA-MB468 cells were grown in Dulbecco's Modified Eagle's Medium (DMEM), both supplemented with 10% fetal calf serum. On the other hand, the MCF-10A cells were grown in DMEM supplemented with […] recombinant human insulin, 20 ng/ml EGF (PeproTech), […] hydrocortisone, 100 ng/ml cholera toxin (Sigma) and 5% horse serum, as described previously. All cells were grown in a 37° C. incubator supplied with 5% CO2. In the 2D culture studies, cells were treated with vehicle alone (PBS: phosphate buffered saline) or three different concentration of CNBDA. When the density of cells reached approximately 30%, each plate was treated with vehicle alone (placebo) or the indicated concentrations of CNBDA. In the HER2-positive BT474 breast cancer cell line, CNBDA suppressed cell growth at the lowest concentration used (100 ng/ml) as determined by absence of gradual increase in cell density (FIG. 6A). But, at the 72 hour time point, it was possible to see signs of cell death as evidenced by shrinkage in the extended patchy growth property of these cells. At 500 ng/ml and higher concentrations, CNBDA induced cell death within 24 hours which became more evident gradually.
At the lowest concentration used, CNBDA was able to block cell growth and induction of cell death was apparent only after 48 hours. […]

[6] = tested on: BT474 cells; test: soft agar anchorage-independent growth, BT474; type: cell-based
Description: (§5) Next, the efficacy of CNBDA was evaluated by the soft agar assay, a technique commonly used to determine ability of cells to grow in an anchorage-independent manner, one of the hall marks of a cancer cell. The HER2-positive BT474 and the HER1-positive MDA-MB468 cells were seeded in soft agar, treated with placebo or CNBDA at variable concentrations, cultured for 10 days, and their ability to form colonies was monitored by observation under a microscope. […] While the placebo-treated BT474 and MDA-MB468 cells formed larger and numerous colonies in 10 days, the CNBDA-treated counterparts formed smaller and fewer ones (FIG. 6B). In addition, the concentration of CNBDA that abolished colony formation in soft agar was at least 4-fold lower than the amount that caused cell death in 2D cultures in both cell lines (compare FIGS. 6A and 6B).
(§6) Note than the number and size of colonies decreases as the concentration of CNBDA increases. Also note that the concentration of CNBDA that abolished colony formation in the HER2-positive BT474 breast cancer cell line is 2-fold lower than the amount used in the MDA-MB468 cells.

[7] = molecular target: T2, PTP domain of SHP2 fused to GST (Homo sapiens, UniProt Q06124); test: phosphatase assay with DiFMUP substrate, GST-PTP of SHP2; type: biochemical
T2 construct: The PTP domains of SHP2 and SHP1 fused to glutathione-S-transferase (GST-PTPs) were expressed in E. coli; GST (N); made in house; host or cells: E. coli
T2 sequence (Q06124 247-517 limits assumed): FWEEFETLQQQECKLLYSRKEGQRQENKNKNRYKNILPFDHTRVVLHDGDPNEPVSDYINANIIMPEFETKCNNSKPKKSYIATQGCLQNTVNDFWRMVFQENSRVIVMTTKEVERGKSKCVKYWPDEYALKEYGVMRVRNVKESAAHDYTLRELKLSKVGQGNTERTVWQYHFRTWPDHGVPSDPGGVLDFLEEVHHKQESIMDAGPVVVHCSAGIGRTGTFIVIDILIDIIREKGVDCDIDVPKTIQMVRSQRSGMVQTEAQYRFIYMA
Description: as §1

[8] = tested on: MDA-MB468 cells; test: soft agar anchorage-independent growth, MDA-MB468; type: cell-based
Description: as §5, §6

[9] = tested on: MDA-MB468 cells; test: mammosphere formation in suspension culture, MDA-MB468; type: cell-based
Description: as §3, §4

For CCCCCCCCCOc1c(CCCC(=O)O)cc(-c2ccc(C(=O)O)cc2)cc1CCCC(=O)O [CNBDA], the pIC50 [1] was 3.91, the “effect on cell growth and cell death at the higher concentration used” value ([2]; 6 μg/ml) was “did not cause a significant decrease in cell growth or induce cell death” and the “effect on cell growth” value ([2]; 2D culture) was “very little effect”. For the same molecule, the “concentration showing effect, relative to BT474 cells” value [3] was “double the concentration”, the “minimum concentration needed to induce cell death after 48 hours” value ([3]; pilot studies) was 1 µg/mL and the “concentration exhausting mammosphere formation, fold lower than amount needed for cell killing in 2D cultures” value ([4]; BT474) was 4-5 fold. For the same molecule, the mammosphere formation ([4]; BT474, suspension culture, concentration dependent) was “suppressed mammosphere formation”, the “concentration abolishing mammosphere formation in BT474, fold lower than in MDA-MB468” value ([4]; suspension culture) was 2 fold and the “concentration that induced cell death within 24 hours” value [5] was ≥ 500 ng/mL. For the same molecule, the “time at which cell death became apparent at the lowest concentration” value ([5]; 100 ng/ml) was 72 h and > 48 h, the “concentration that suppressed cell growth (lowest used)” value ([5]; absence of increase in cell density) was 100 ng/mL and the “concentration abolishing colony formation, fold lower than amount causing cell death in 2D culture” value ([6]; BT474) was “at least 4 fold”. For the same molecule, the “colony formation in soft agar” value ([6]; BT474, 10 days, concentration dependent) was “suppression of colony formation”, the “concentration abolishing colony formation in BT474, fold lower than in MDA-MB468” value ([6]; soft agar) was 2 fold and the “mode of SHP2 inhibition” value [7] was “competitive SHP2 inhibitor”. The pIC50 ([7]; DiFMUP 20 μM, 30° C., pH7.0) was 4.92, the “selectivity for SHP2 over SHP1” value ([7]; from IC50 values) was 10 fold and the “concentration abolishing colony formation, fold lower than amount causing cell death in 2D culture” value ([8]; MDA-MB468) was “at least 4 fold”. The “colony formation in soft agar” value ([8]; MDA-MB468, 10 days, concentration dependent) was “suppression of colony formation”, the “concentration exhausting mammosphere formation, fold lower than amount needed for cell killing in 2D cultures” value ([9]; MDA-MB468) was 4-5 fold and the mammosphere formation ([9]; MDA-MB468, suspension culture, concentration dependent) was “suppressed mammosphere formation”.
